In article PMC12114796, “Self-Assembled Cannabigerol-Based Nanoparticles: Design, Synthesis, and Antiproliferative Activity” (Pharmaceutics, 2025):
Like-named read-outs stand apart in the source and are kept apart here.

How the values were obtained:
[1] = test system: LN229, HT-29, MSTO-211H and MeT-5A cells; experiment: Antiproliferative activity compared across the cell line panel; assay type: cell-based; conditions: Homo sapiens; all four cell lines, 72 h; read-out: GI50 values (range over the cell lines)
Description: The cell lines used in our study were purchased from ATCC (American Type Culture Collection). Specifically, we used LN-229 (ATCC CRL-2611), HT-29 (ATCC HTB-38), and MSTO-211H (ATCC CRL-2081). MeT-5A (ATCC CRL-9444), MSTO-211H (human biphasic mesothelioma), and Met-5A (human mesothelium) cells were grown in RPMI 1640 (R6504, Merck) supplemented with 2.38 g/L Hepes (H3375, Merck, St. Louis, MO, USA), 0.11 g/L pyruvate sodium (P5280, Merck), 2.5 g/L glucose (G6152, Merck), and 10% heat-inactivated fetal calf serum (FCS, F7524, Merck). HT-29 (human colorectal adenocarcinoma) cells were grown in RPMI 1640 (R6504, Merck) supplemented with 10% heat-inactivated FCS. LN229 (human glioblastoma) cells were cultured in DMEM (D2902, Merck) supplemented with 3.5 g/L glucose and 5% FCS. NaHCO3 (S5761, Merck), as indicated in the manufacturer’s instructions, 100 U/mL penicillin, 100 μg/mL streptomycin, and 0.25 μg/mL amphotericin B (A5955, Merck) were added to the culture media. The cells were maintained at 37 °C in a humidified atmosphere incubator containing 5% carbon dioxide in air.
The cell viability was analyzed by a trypan blue dye exclusion assay. […] After 72 h from the treatment, the cells were detached by trypsinization and counted by optical microscope. […]

[2] = test system: MSTO-211H (human biphasic mesothelioma) cells; experiment: Cell viability, trypan blue dye exclusion assay (antiproliferative activity); assay type: cell-based; conditions: 72 h
Description: (§1) The cell lines used in our study were purchased from ATCC (American Type Culture Collection). […] LN229 (human glioblastoma) cells were cultured in DMEM (D2902, Merck) supplemented with 3.5 g/L glucose and 5% FCS. NaHCO3 (S5761, Merck), as indicated in the manufacturer’s instructions, 100 U/mL penicillin, 100 μg/mL streptomycin, and 0.25 μg/mL amphotericin B (A5955, Merck) were added to the culture media. The cells were maintained at 37 °C in a humidified atmosphere incubator containing 5% carbon dioxide in air.
(§2) The cell viability was analyzed by a trypan blue dye exclusion assay. Briefly, 3–4 × 10^4 cells were seeded in each well of a 24-well cell culture plate and treated with test drugs or NPs at concentrations ranging from 1 to 30 nM and from 0.01 to 20 μM, respectively, after 24 of growth in standard conditions. After 72 h from the treatment, the cells were detached by trypsinization and counted by optical microscope.

[3] = test system: LN229 (human glioblastoma) cells; experiment: as above; assay type: cell-based
Description: as §1, §2

[4] = test system: HT-29 (human colorectal adenocarcinoma) cells; experiment: as above; assay type: cell-based; conditions: HT-29, 72 h
Description: as §1, §2

[5] = test system: MeT-5A (human mesothelium, non-tumorigenic) cells; experiment: as above; assay type: cell-based; conditions: 72 h
Description: as §1, §2

LN229 cells = experiment: Cell cycle analysis by flow cytometry (propidium iodide); assay type: cell-based, human; conditions: LN229, 48 h
Description: A total of 2 × 10^5 LN229 cells were seeded in Petri culture plates, left to grow for 24 h in standard conditions, and then treated with CPT and Np3b at the indicated concentrations. After 48 h, the cells were harvested, centrifuged, combined with ice-cold 70% w/v ethanol, and left at 4 °C for 20 min. Then, the cells were centrifuged, and the pellet was resuspended in a final volume of 300 μL PBS containing 0.1 mg mL^−1 RNAse (R6513, Merck) and […] propidium iodide (P4170, Merck). The DNA content was quantified by a BD FACSAria III flow cytometer (BD Life Sciences) and the data were analyzed by BD FACSDiva software (version 9.0). Statistical analysis was performed by Student’s t-test.

[6] = test system: microtubules in LN229 cells; experiment: Confocal microscopy of microtubule status (anti-β-tubulin staining); assay type: cell-based, human; conditions: LN229, 4 h; Desa 3 µM, Np1b 200 µM, PTX and Np2b at indicated concentrations
Description: LN229 cells (3 × 10^4) were seeded in 4-well cell culture chamber on a glass slide and cultured up to 50–60% confluence. […] After incubation, the cells were gently washed twice with PBS, fixed with 4% formaldehyde at room temperature for 15 min, washed twice with PBS, and permeabilized with 0.1% Triton X-100 (T8787, Merck) in PBS for 5 min in the dark. Again, the cells were washed twice with PBS and incubated for 30 min in the dark with 7% FCS in PBS. […] After washing twice with PBS, 0.001 mg/mL DAPI (MBD0015, Merck) was added for 15 min, then the cells were washed with PBS, and the coverslips were mounted on glass slides using Fluoroshield^TM (F6182, Merck). […] Particle counting and size distribution were estimated using the built-in Analyze Particles plugin in Image J (Fiji).

SMILES | GI50 [1] [nM] | GI50 [2] [nM] | GI50 ([3]; LN-229, 72 h) [nM] | GI50 [4] [nM] | GI50 [5] [nM] | GI50 ([2]; mean ± SD, read-out: GI50) [nM] | GI50 ([3]; LN-229, LN229, 72 h, mean ± SD, read-out: GI50) [nM] | GI50 ([4]; mean ± SD, read-out: GI50) [nM] | GI50 ([5]; mean ± SD, read-out: GI50) [nM] | cells in G2/M phase (LN229 cells; 20 nM CPT (control 11.7%)) [%] | cells in G1 phase (LN229 cells; 20 nM CPT (control 69.4%)) [%] | effect on microtubule network [6]
CCCCCc1cc(O)c(C/C=C(\C)CCC=C(C)C)c(O)c1 [CBG, Cannabigerol] | 5900 to 16000 | 16000 ± 2000 | 5900 ± 1300 | 9700 ± 200 | 16000 ± 2000 |  |  |  |  |  |  | 
CC[C@@]1(O)C(=O)OCc2c1cc1n(c2=O)Cc2cc3ccccc3nc2-1 [CPT, camptothecin] |  |  |  |  |  | 3.3 ± 1 | 7.9 ± 0.1 | 7.9 ± 0.8 | 7.8 ± 0.2 | 33.4 | 49.4 | 
CC(=O)O[C@H]1C(=O)[C@@]2(C)[C@H]([C@H](OC(=O)c3ccccc3)[C@]3(O)C[C@H](OC(=O)[C@H](O)[C@@H](NC(=O)c4ccccc4)c4ccccc4)C(C)=C1C3(C)C)[C@]1(OC(C)=O)CO[C@@H]1C[C@@H]2O [PTX, paclitaxel] |  | 3.3 ± 0.6 | 4.2 ± 0.7 | 2.8 ± 0.2 | 4.4 ± 0.1 |  |  |  |  |  |  | polymerizing effect
